Series [1] relates to Con A stimulated cells. To be noted: for Percentage cell survival compared to 100% untreated cells under Con A stimulation: human.
The test system of a further series is TNF-α. Kind of series: TNF-α levels in PBMC under Con A stimulation (ELISA). It is filed as cell-based, human. To be noted: for Percentage TNF-α levels compared to 100% untreated cells under Con A stimulation: PBMC; for concentration of TNF-α in Con A stimulated cells: text summary of Table 3, concentration not stated. On the procedure:
1) Isolation, Culture and Treatment of Peripheral Blood Mononuclear Cells (PBMC) Blood was collected in 6 ml vacutainers (green cap). Blood was processed within 2 h of collection. Materials used: Non-coagulated blood; FCS; RPMI-1640 media supplemented with L-Gln and P/S; PBS; sterile tips and pipettes; Sterile 15 ml Falcon; Sterile V-bottom 96-well plates with lids; Neubauer chamber; Trypan Blue solution; 70% IPA solution; Accuspin-Histopaque tubes (Sigma, A7054) Procedure: • 1. Dilute samples 1:1 in sterile PBS; • 2. Add 30 ml of diluted blood into an Accuspin-Histopaque tube (Sigma, A7054); • 3. Centrifuge at 800 rcf 15min at room temperature (RT); • 4. After centrifugation, the red blood cells will remain at the bottom below the frit. The monocytes (PBMC) will be present on a layer above the frit, with the plasma on top; • 5. Collect the PBMC layer with a pipette into a fresh 15 ml Falcon tube and top up to 15 ml of PBS; • 6. Centrifuge at 250 rcf 10 min at RT; • 7. Discard the supernatant, flick the pellet and add another 10 ml of PBS; • 8. Centrifuge at 250 rcf 10 min at RT; • 9. Repeat steps 7 and 8; • 10. […] Count cells and make a 4×10^6 cell/ml suspension in complete medium. Add 100 μl of cell suspension per well in a V-bottom 96-well plate. Then add 50 μl of stimulant or vehicle in complete media, and 50 μl of drug or vehicle in complete media. Incubate the cells for 24 h at 37° C. 5% CO2; • 12. After incubation, take 60 μl of cell supernatant to measure IFNγ and TNFα by ELISA (OptEIA human IFNγ, cat No. 555142 and human TNF, Cat No. 555212) following manufacturer's instructions (BD Biosciences); The two mitogens that the inventors used to stimulate lymphocytes, and therefore assess immune function, were lipopolysaccharide (LPS) and Concanavalin A (Con A). LPS acts on B cells but not T cells, whereas Con A acts on T cells but not B cells. The effects of two embodiments of the compound represented by formula I, i.e. dobutamine (referred to in the tables as BC1021) and ritodrine (BC1023), on the levels of IFN-γ and TNF-α were investigated in LPS and Con A stimulated assays. Peripheral Blood Mononuclear Cells (PMBC) were independently administered with each mitogen, LPS or Con A, and then treated with either dobutamine or ritodrine. Control experiments were conducted in which no LPS or Con A was added, such that any effect on the levels of IFN-γ and TNF-α could be directly attributed to the presence of the test compound, dobutamine or ritodrine.
(ELISA stands for enzyme-linked immunosorbent assay.)

In series [2] the test system is Con A stimulated cells. Kind of series: Percentage cell survival of Con A stimulated cells. To be noted: for Percentage cell survival compared to 100% untreated cells under Con A stimulation: compound only (no Con A).
[3] abbreviates: compound only (no Con A), 10 μM.
[4] abbreviates: compound only (no Con A), 100 μM.

Like-named read-outs stand apart in the source and are kept apart here.

Consider `CC(NCCc1ccc(O)cc1)C(O)c1ccc(O)cc1` (stereo not shown) [BC1023, ritodrine], for which the “percentage cell survival compared to the untreated controls” value in the series with Con A stimulated cells [1] is reported as “higher”. Moreover, the “Percentage cell survival compared to 100% untreated cells under Con A stimulation” value was 78.69% in the series with Con A stimulated cells [1] (1 μM), 75.25% with Con A stimulated cells [1] (10 μM) and 72.56% in the series with Con A stimulated cells [1] (100 μM). Besides, the “Percentage TNF-α levels compared to 100% untreated cells under Con A stimulation” value is 103.92% in the series on TNF-α (+ Con A, compound 1 μM, 24 h); 106.20% in the series on TNF-α (+ Con A, compound 10 μM, 24 h); 104.93% with TNF-α (+ Con A, compound 100 μM, 24 h); −5.94% in the series with TNF-α (compound only (no Con A), 1 μM); −24.69% with TNF-α (setting [3]); −14.80% in the series on TNF-α (setting [4]). In the series with TNF-α, the “concentration of TNF-α in Con A stimulated cells” value was “decreased”.
For the compound `CC(CCc1ccc(O)cc1)NCCc1ccc(O)c(O)c1` (stereo not shown) [BC1021, dobutamine], the “Percentage cell survival compared to 100% untreated cells under Con A stimulation” value in the series on Con A stimulated cells [2] (1 μM) is given as 76.89%; in the series with Con A stimulated cells [2] (10 μM) it was 69.80%; in the series on Con A stimulated cells [2] (100 μM), 44.95%. In addition, the “percentage cell survival compared to the untreated controls” value with Con A stimulated cells [2] (text summary of Table 5, all doses) was “higher”. For the same compound, the “Percentage TNF-α levels compared to 100% untreated cells under Con A stimulation” value was 103.05% with TNF-α (+ Con A, compound 1 μM, 24 h); 102.36% in the series on TNF-α (+ Con A, compound 10 μM, 24 h); −33.95% in the series on TNF-α (+ Con A, compound 100 μM, 24 h); −35.44% in the series with TNF-α (compound only (no Con A), 1 μM); −33.21% in the series with TNF-α (setting [3]); −42.84% in the series on TNF-α (setting [4]). The “concentration of TNF-α in Con A stimulated cells” value in the series with TNF-α is recorded as “decreased”.

The values are drawn from patent publication US20120283334A1, “Treatment of Viral Infections” (Biocopea, Ltd., priority 2009, published 2012).
